The values below come from patent US20030073218A1, “High affinity inhibitors for target validation and uses thereof” (Princeton University, priority 1999, published 2003).

Entries after “also recorded” stand apart in the source; their conditions may differ. Like-named read-outs stand apart in the source and are kept apart here.

The target in experiment [1] is T1, I338G v-Src (Rous sarcoma virus subgroup A, UniProt P00524, DEL77-225/I338G).
T1 construct: screened against the catalytic domain of the target kinase, I338G v-Src; made in house; host or cells: E. coli DH5a, pGEX-KT
Briefly: biochemical. The format is biochemical.

The target in experiment [2] is T2, PKCd (Homo sapiens, UniProt Q05655).
T2 construct: 6-His; made in house; host or cells: Bac-to-Bac baculovirus expression system (pFastBac B vector)
Briefly: In Vitro Kinase Inhibition Assay. The format is biochemical. Conditions: at concentrations up to 300 mM.

The target in experiment [3] is T3, PKA (Homo sapiens, UniProt P17612).
T3 construct: purchased Pierce
The experiment in a line: In Vitro Kinase Inhibition Assay. Type of experiment: biochemical. The note with it: at concentrations up to 300 mM. From the text:
PKA was purchased (Pierce) and used without further purification.

Experiment [4] concerns B cell receptor (BCR) mediated phosphorylation cascade in murine B cells. The experiment in a line: Murine B Cell Assay (phosphotyrosine blot after anti-IgM stimulation). Type of experiment: cell-based. Also on record: dose or concentration left out as unconfirmed. Conditions: 30 minutes, anti-IgM cross linked murine B cells. As to the method:
Murine B Cell Assay: Splenic lymphocytes were isolated from 6-20 week old Balb/c or C57/B6 mice. The cells were washed out of the spleen into RPMI media containing 1 mg/mL DNase in and the red blood cells were lysed in 17 mM tris-ammonium chloride, pH 7.2, Approximately 4×10^6 cells were incubated at 37° C. for 30 minutes with […] of 3 g or 2 in 1.1% DMSO. B cell stimulation was initiated by the addition of 2 mg of goat anti-mouse IgM (Jackson Immuno Research, cat# 115-005-075) and subsequent incubation for 5 minutes at 37(C. The cells were isolated by centrifugation (13,000 rpm, 2 min) and lysed (lysis buffer: 1% Triton X-100, 50 mM tris pH 7.4, 2 mM EDTA, 150 mM NaCl, […] PMSF, 2 mM sodium orthovanadate, 10 mg/mL leupeptin, 10 mg/mL apoprotin). The cellular debris was then pelleted at 13,000 rpm for 15 min. Cellular proteins were separated by 10% polyacrylamide gel electrophoresis and transferred to a nitrocellulose membrane by Western blotting. Phosphotyrosine containing proteins were visualized by immunoblotting with anti-phosphotyrosine antibody (Upstate Biotechnology, Inc.).

The subject of experiment [5] is WT v-Src transformed NIH3T3 cells. The experiment in a line: Inhibition of v-Src in NIH3T3 fibroblasts (phosphotyrosine blot). Type of experiment: cell-based, murine. Conditions: 100 mM 3g, 12 hours. The protocol: Tyrosine phosphorylated proteins were visualized as in FIG. 20A.
Retroviral Infection of NIH 3T3 Fibroblasts: Genes encoding WT and I338G v-Src were transfected into a packaging cell line and NIH 3T3 fibroblasts were retrovirally infected using the pBabe retroviral vector and a puromycin ([…]) selectable marker as described (Shah, K., Liu, Y., Shokat, K. M., in preparation). WT and I338G v-Src transformed cells were cultured in DMEM/10% BCS containing […] puromycin).
After 12 hours, the cells were washed with PBS and lysed (lysis buffer: 1% Triton X-100, 50 mM tris pH 7.4, 2 mM EDTA, 150 mM NaCl, […], 2 mM sodium orthovanadate, 10 mg/mL leupeptin, 10 mg/mL apoprotin). The lysate was clarified by centrifugation at 13,000 rpm for 15 min. Lysate protein concentrations were normalized and equal volumes of the lysate were resolved electrophoretically and analyzed for phosphotyrosine content as described above.

The test system of experiment [6] is I338G v-Src transformed NIH3T3 fibroblasts. The experiment in a line: Microscopy of cell morphology and polymerized actin. The note with it: 100 mM 3g, 48 hours. Type of experiment: cell-based, murine. As to the method: FIG. 21A show non-transformed NIH3T3 cells.
Microscopy: Non-transformed, WT v-Src transformed, and 1338G v-Src transformed NIH3T3 fibroblasts were grown in DMEM/10% BCS on tissue culture treated slides. V-Src expressing cells were treated with either 1.1% DMSO or […] 3g in 1.1% DMSO. After 48 hours cells were photographed at 400(magnification on an Nikon TMS light microscope. Immediately following light microscopy, the cells were fixed for 20 min in 3.7% formaldehyde/PBS and permeabilized for 60 sec in 0.2% Triton X-100(/PBS. Permeabilized cells were incubated with 200 ng/mL phalloidin-FITC/PBS for 20 min. Slides were rinsed with PBS and polymerized actin was visualized by fluorescence microscopy at 600( magnification on a Zeiss fluorescence microscope.

Experiment [7] has as its system protein tyrosine kinase in murine lymphocyte cell lysate (CF). Briefly: Screening of ATP analogs as kinase substrates in murine lymphocyte lysate (anti-phosphotyrosine immunoblot). Type of experiment: biochemical. The note with it: 100 uM nucleotide triphosphate, 37° C., 5 min. As to the method: Screening of Nucleotide Analogs: To identify compounds that would not be accepted as substrates by any existing cellular kinase (53), a panel of synthetic A*TP analogs were screened in a murine lymphocyte lysate (CF) rich in protein tyrosine kinase (13). The assays were performed using spleenocytes (8-30 week old male and female C57/B6 mice from the Princeton University Animal Facility) which were isolated and washed in RPMI-1640 medium containing 5% Bovine Calf Serum (BCS), 1% Hepes and DNAseI (1 μg/ml). Red cells were lysed at 4° C. by treatment with 17 mM tris ammonium chloride pH 7.2. The cells were hypotonically lysed on ice for 10 min. In 1 mM Hepes pH 7.4, 5 mM MgCl2, leupeptin (10 μg/ml), aprotinin (10 μg/ml) and 100 uM PMSF according to the method of Fukazawa et. al. (51). After vortexing and centrifuigation at 500 xg, the supernatant was collected. Cells were stored at 4° C. for 20 min. To attenuate the basal protein phosphorylation level, after which the buffer was adjusted to 20 mM Hepes pH 7.4, 10 mM MgCl2 and 1 mM NaF. Sodium vanadate (100 uM) was then added to inhibit the activity of phosphotyrosine phosphatases.
Each nucleotide triphosphate was added to a final concentration of 100 uM to 5×10^6 cell equivalents and incubated at 37° C. for 5 min. after which 4X Laemmli gel loading buffer was added to the cell lysate to quench the reaction. Proteins were separated by 12.5% SDS-PAGE and transferred to Protran BA85 (Schleicher-Schuell). The blot was probed with the anti-phosphotyrosine monoclonal antibody 4G10 (Upstate Biotechnology) and the bound antibody was detected via enhanced chemiluminescence (cat. 34080, Pierce) following treatment with HRP- coupled goat-anti-mouse antibody (VWR cat. 7101332) according to the manufacturer's instructions.
The cell lysate used includes the protein tyrosine kinase Src, Fyn, Lck, Lyn, Yes, Fgr, Hck, Zap, Syk, Btk, Blk, and other protein tyrosine kinase present in B and T lymphocytes, macrophages, and follicular dendritic cells (13). Molecular size standards (in kilodaltons) are indicated.
In general terms: In western blotting, separated proteins are transferred to a membrane and probed.

Experiment [8] has as its target T4, GST-XD4(V323A, I338A) (Rous sarcoma virus subgroup A, UniProt P00524, DEL77-225/I338A/V323A).
T4 construct: mutant of the v-Src catalytic domain, (the XD4 fragment) were made as glutathione S-transferase (GST) fusion proteins; made in house; host or cells: E. coli (DH5a), pGEX-KT
The format is biochemical. As to the method: (§1) Kinetic constants were determined by analysis of Lineweaver-Burk plots of the rate data (64).

The target of experiment [9] is T4, GST-XD4(V323A, I338A). Briefly: Autophosphorylation with radiolabeled nucleotide (autoradiogram). The format is biochemical. Conditions: FIG. 5C lane 4. From the text: (§2) It is even more significant that the new substrate, [γ-^32P] […] FIG. 5C is an autoradiogram showing [γ-^32P]
Experiment [10] relates to wild-type cellular kinase in murine lymphocyte lysates. The experiment in a line: In vitro kinase reactions with radiolabeled nucleotide in murine lymphocyte lysates. Type of experiment: biochemical. The note with it: 100 μM radiolabeled nucleotide, 37° C., 10 min. As to the method: For this it is preferably that no wild-type kinase, including ser/thr specific kinase (which carry out the bulk of cellular phosphorylation, as only 0.03% of all phosphoamino acids are tyrosine) (65), substantially accept the synthetic substrate. To establish that [γ-^32P]
These assays were performed in a manner similar to the procedure set forth in Example 2, with the exception of the use of radiolabeled [γ-^32P] […] Proteins were separate by 12.5% SDS-PAGE. The gel was soaked in 10% acetic acid, 10% isopropanol for 1 h. after which it was dried in a gel dryer and exposed to Biomax MS film (Kodak # 111-1681) for 1 h.

For experiment [11], the system named is GST-XD4(V323A, I338A). The note with it: 100 μM analog, 10 μM [γ-32P] ATP.
Experiment [12] addresses T5, GST-XD4 (Rous sarcoma virus subgroup A, UniProt P00524, DEL77-225). Briefly: biochemical. Type of experiment: biochemical. The arrangement: mutant of the v-Src catalytic domain, (the XD4 fragment) were made as glutathione S-transferase (GST) fusion proteins; made in house; host or cells: E. coli (DH5a), pGEX-KT. As to the method:
as §1

The target of experiment [13] is T5, GST-XD4. Briefly: Autophosphorylation with radiolabeled nucleotide (autoradiogram). The format is biochemical. The arrangement: mutant of the v-Src catalytic domain, (the XD4 fragment) were made as glutathione S-transferase (GST) fusion proteins; made in house; host or cells: E. coli (DH5a), pGEX-KT. Conditions: GST-XD4, FIG. 5C lane 3.
From the text: as §2

Experiment [14] deals with T6, Cdc28-as1 · MBP-Clb2 (Saccharomyces cerevisiae, UniProt P00546, F88G).
T6 construct: made in house; host or cells: Sf9 insect cells, baculovirus, co-infected with Cak1-HA3 (Cdc28-as1-His6); bacteria (MBP-Clb2)
Type of experiment: biochemical.

Experiment [15] addresses T5, GST-XD4. The note with it: read-out: KM for protein substrate RR-Src at saturated nucleotide.
Experiment [16] addresses wild-type Fyn (Homo sapiens, UniProt P06241). Briefly: Peptide phosphorylation assay, screening of inhibitors orthogonal to wild-type kinases. Type of experiment: biochemical. The note with it: read-out: IC50 for inhibition of wild-type Fyn. An excerpt: Screening of inhibitors which are orthogonal to wild-type kinases: To identify compounds that would not inhibit any existing cellular kinases, the panel of synthetic pyrazolo pyrimidine analogs (1-6) (FIG. 10) were screened against two closely related purified protein tyrosine kinases, v-Src and Fyn, in a peptide phosphorylation assay using [γ-^32P]

Setting [17] is: GST-XD4, 1 mM RR-Src, 37° C., pH 8.0.

T6 sequence (P00546 whole entry F88G): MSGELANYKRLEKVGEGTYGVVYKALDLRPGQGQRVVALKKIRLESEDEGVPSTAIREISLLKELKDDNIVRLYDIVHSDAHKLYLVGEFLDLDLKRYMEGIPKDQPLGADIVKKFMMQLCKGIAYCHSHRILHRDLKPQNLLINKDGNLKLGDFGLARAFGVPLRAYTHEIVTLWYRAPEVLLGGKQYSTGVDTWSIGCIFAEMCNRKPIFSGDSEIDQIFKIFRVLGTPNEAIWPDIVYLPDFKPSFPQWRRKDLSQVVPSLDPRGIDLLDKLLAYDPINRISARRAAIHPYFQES
T6 sequence (P24869 whole entry, further chain): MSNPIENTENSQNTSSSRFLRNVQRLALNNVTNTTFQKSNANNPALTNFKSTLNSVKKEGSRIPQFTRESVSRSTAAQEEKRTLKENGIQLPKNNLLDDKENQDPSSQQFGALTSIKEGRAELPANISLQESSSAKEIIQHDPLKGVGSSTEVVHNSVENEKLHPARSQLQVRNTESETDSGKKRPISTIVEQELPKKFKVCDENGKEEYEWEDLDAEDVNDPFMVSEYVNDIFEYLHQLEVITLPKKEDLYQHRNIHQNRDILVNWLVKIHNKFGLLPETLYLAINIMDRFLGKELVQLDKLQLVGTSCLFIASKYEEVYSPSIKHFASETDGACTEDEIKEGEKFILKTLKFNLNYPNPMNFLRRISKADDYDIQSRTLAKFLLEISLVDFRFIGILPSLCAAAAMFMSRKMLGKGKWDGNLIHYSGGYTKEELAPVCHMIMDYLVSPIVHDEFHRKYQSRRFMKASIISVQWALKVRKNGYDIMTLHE
T2 sequence (Q05655 whole entry, species assumed): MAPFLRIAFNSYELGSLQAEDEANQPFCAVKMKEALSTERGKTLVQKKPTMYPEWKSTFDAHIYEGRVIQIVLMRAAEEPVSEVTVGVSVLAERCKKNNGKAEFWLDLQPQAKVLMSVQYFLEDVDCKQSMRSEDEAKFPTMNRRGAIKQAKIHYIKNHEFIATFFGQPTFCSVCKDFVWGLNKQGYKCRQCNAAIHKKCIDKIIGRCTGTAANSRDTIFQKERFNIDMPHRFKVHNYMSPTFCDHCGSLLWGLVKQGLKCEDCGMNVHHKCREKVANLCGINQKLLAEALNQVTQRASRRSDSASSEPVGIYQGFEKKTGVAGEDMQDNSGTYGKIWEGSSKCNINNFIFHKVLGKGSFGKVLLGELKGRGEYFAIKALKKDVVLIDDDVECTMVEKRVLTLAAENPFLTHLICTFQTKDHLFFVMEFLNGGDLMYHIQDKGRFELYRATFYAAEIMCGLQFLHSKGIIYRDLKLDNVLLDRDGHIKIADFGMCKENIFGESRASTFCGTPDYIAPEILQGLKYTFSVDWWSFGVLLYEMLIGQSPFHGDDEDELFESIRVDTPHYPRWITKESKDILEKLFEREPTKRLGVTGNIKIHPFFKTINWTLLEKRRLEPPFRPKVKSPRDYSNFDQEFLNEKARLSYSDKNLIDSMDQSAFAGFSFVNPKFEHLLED
wild-type Fyn, sequence (P06241 1-534 isoform P06241-2, species assumed): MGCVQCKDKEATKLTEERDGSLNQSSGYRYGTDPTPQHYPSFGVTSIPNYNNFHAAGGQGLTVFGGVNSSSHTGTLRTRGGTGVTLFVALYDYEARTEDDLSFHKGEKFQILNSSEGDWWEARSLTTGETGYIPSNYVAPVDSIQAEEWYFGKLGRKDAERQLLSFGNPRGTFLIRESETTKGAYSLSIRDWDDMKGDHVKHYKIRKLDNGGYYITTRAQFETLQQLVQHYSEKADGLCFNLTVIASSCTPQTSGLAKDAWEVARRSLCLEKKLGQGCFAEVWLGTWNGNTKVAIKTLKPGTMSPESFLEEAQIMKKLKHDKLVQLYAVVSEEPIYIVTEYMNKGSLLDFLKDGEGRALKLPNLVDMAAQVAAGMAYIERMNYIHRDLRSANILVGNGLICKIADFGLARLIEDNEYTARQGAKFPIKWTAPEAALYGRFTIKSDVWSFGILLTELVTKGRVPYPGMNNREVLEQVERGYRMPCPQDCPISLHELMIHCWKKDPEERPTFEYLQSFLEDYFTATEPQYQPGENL

For orientation: Ki means the dissociation constant of the complex between target and ligand, obtained from inhibition or displacement. As to `CC(C)(C)c1ccc(C(=O)Nc2ncnc3c2c(-c2ccccc2)nn3C(C)(C)C)cc1` [Compound 3g, 4-(p-tert-butyl)benzamido-1-tert-butyl-3-phenylpyrazolo[3,4-d]pyrimidine], the “mode of inhibition of I338G v-Src” value in [1] (Lineweaver-Burk analysis) was “competitively with respect to ATP”. Further, in experiment [1] (Lineweaver-Burk analysis at various ATP concentrations, read-out: inhibitory constant (Ki), I338G v-Src), the Ki is approximately 0.4 µM. For the same compound, the “inhibition of PKCd” value in [2] is “not detectably inhibited”. Further, the “inhibition of PKA” value in experiment [3] is listed as “not detectably inhibited”. The “phosphotyrosine pattern of B cell stimulation” value in experiment [4] is “no effect on the phosphotyrosine pattern of B cell stimulation”. Also, the tyrosine phosphorylation entry in experiment [5] is “but not WT v-Src transformed NIH3T3 fibroblasts; also recorded: causes no loss of tyrosine phosphorylation”. In experiment [6], the “cell morphology and polymerized actin” value was “appeared flat and did not exhibit growth characteristics of transformed cells; also recorded: have defined polymerized actin strings”.
Regarding `O=P(O)(O)OP(=O)(O)OP(=O)(O)OC[C@H]1O[C@@H](n2cnc3c(NC4CCCC4)ncnc32)[C@H](O)[C@@H]1O` [ATP analog 8, N^6(cyclopentyl)ATP], in [7], the “ability to serve as cellular protein tyrosine kinase substrate (level of protein tyrosine phosphorylation)” value is reported as “slightly lower level of phosphorylation with wild-type kinase”. The “phosphorylation of RR-Src peptide with the nucleotide as phosphate donor” value is recorded as “displayed Michaelis-Menten kinetics” in experiment [8] and “did not substantially phosphorylate the RR-Src peptiide” in experiment [12] (wild-type GST-XD4). Besides, the “use as phosphodonor for autophosphorylation” value in experiment [9] was “efficiently autophosphorylated”; in experiment [13], “apparent complete inability of GST-XD4 to use this analog as a phosphodonor for autophosphorylation”. Also, the “radiolabeled phosphoproteins in cell lysate” value in experiment [10] was “no radiolabeled phosphoproteins in the cell lysate”. Moreover, the “inhibition of GST-XD4(V323A, I338A) catalyzed RR-Src phosphorylation” value in experiment [11] is recorded as “almost as well as the wild-type kinase, GST-XD4, is inhibited by its natural substrate ATP”. Moreover, affinity in experiment [12] was put at a Ki of 2000 µM.
As a reminder, the Km is the substrate concentration at which the rate is half of its maximum. A word on the kcat: it is the number of substrate molecules converted per active site and unit of time at saturation. Turning to `Nc1ncnc2c1ncn2[C@@H]1O[C@H](COP(=O)(O)OP(=O)(O)OP(=O)(O)O)[C@@H](O)[C@H]1O` [ATP, adenosine triphosphate], in experiment [14], the “reduction in binding affinity for ATP relative to wild-type Cdc28” value turned out to be 10 fold and the “reduction in maximum ATP turnover rate relative to wild-type Cdc28” value is on record as 6 fold. In experiment [15], the Km is 2600 ± 900 µM. In addition, in experiment [12] (setting [17]), the Km stood at 12 ± 3 µM and the catalytic constant (kcat) was found to be 0.033 ± 0.0083 s⁻¹.
One may read the IC50 as the midpoint of a concentration-inhibition curve. Consider `CC(C)(C)n1nc(-c2ccccc2)c2c(NC(=O)c3ccccc3)ncnc21` [Compound 3e, 4-benzamido-1-tert-butyl-3-phenylpyrazolo[3,4-d]pyrimidine], for which the concentration for half-maximal inhibition (IC50) in experiment [16] is more than 400 µM.
